Results reported in patent US10815276B2, “Cell penetrating peptides and methods of making and using thereof” (Entrada Therapeutics, Inc., priority 2014, dated 2020).
Like-named read-outs stand apart in the source and are kept apart here. Non-standard residues stand in square brackets, D forms with d. Residues, ends and D or L forms follow the SMILES beside them. No end group written: not given here. *: point of attachment. Lys(5-FITC)NH2 = NC(=O)[C@H](CCCCNC(=S)Nc1ccc2c(c1)C(=O)OC21c2ccc(O)cc2Oc2cc(O)ccc21)N*; Ala(7-OPO3H2-coumarin-4-yl) = N[C@@H](Cc1cc(=O)oc2cc(OP(=O)(O)O)ccc12)C(=O)O; RhodamineB = CCN(CC)c1ccc2c(-c3ccccc3C(=O)*)c3ccc(=[N+](CC)CC)cc-3oc2c1; 2Nal = N[C@@H](Cc1ccc2ccccc2c1)C(=O)O; d2Nal = N[C@H](Cc1ccc2ccccc2c1)C(=O)O; AEEA = NCCOCCOCC(=O)O

Experiments:
HEK293 cells = assay: Live-cell confocal microscopy of internalization; assay type: cell-based, human; details: for CAP fluorescence in cells (confocal): 5 μM pCAP peptide, 60 min; for Intracellular fluorescence of rhodamine B-labeled peptide: 5 μM peptide, 2 h
Experimental: To examine the internalization of rhodamine-labeled peptides, 5×10^4 HEK293 cells were plated in a 35 mm glass-bottomed microwell dish (MatTek). […] The cells were gently washed with DPBS twice and imaged on a Visitech Infinity 3 Hawk 2D-array live cell imaging confocal microscope. To detect the internalization of pCAP-containing peptides, HEK293 cells were similarly plated and incubated with the peptide solution (5 μM) at 37° C. for 60 min. After removal of the medium, the cells were gently washed with DPBS containing sodium pervanadate (1 mM) twice and incubated for 10 min in DPBS containing 5 μM nuclear staining dye DRAQS. The resulting cells were washed with DPBS twice and imaged on a spinning disk confocal microscope (UltraView Vox CSUX1 system). To monitor GFP internalization, 5×10^4 HEK293 cells were seeded in a 35 mm glass-bottomed microwell dish and cultured overnight. Cells were treated with cFΦR4-S-S-GFP (1 μM) at 37° C. for 2 h. After removal of the medium, the cells were incubated in DPBS containing 5 μM DRAQS for 10 min. The cells were washed with DPBS twice and imaged on a Visitech Infinity 3 Hawk 2D-array live cell imaging confocal microscope.

HeLa cells = assay: Cytoplasmic delivery of pCAP-containing peptides, flow cytometry; details: 10 μM peptide; for Mean fluorescence intensity (MFI) of CAP: 2 h
[1] = system: cell type (e.g., HeLa cells); assay: Cellular uptake efficiency of cyclic CPPs; assay type: cell-based; details: relative to cFΦR4 (290-1F, 100%)
Experimental: In particular embodiments, uptake efficiency is determined by comparing (i) the amount of a cyclic cell-penetrating peptide of the invention internalized by a cell type (e.g., HeLa cells) to (ii) the amount of c(FΦRRRRQ) (290-1F) internalized by the same cell type. To measure cellular uptake efficiency, the cell type may be incubated in the presence of a cell-penetrating peptide of the invention for a specified period of time (e.g., 30 minutes, 1 hour, 2 hours, etc.) after which the amount of the cell-penetrating peptide internalized by the cell is quantified. Separately, the same concentration of c(FΦRRRRQ) (290-1F) is incubated in the presence of the cell type over the same period of time, and the amount of the second peptide internalized by the cell is quantified. Quantification can be achieved by fluorescently labeling the cell-penetrating peptide (e.g., with a FTIC dye) and measuring the fluorescence intensity using techniques well-known in the art.
(§1) Also discussed herein are the CPP sequences in Table 16. All uptake/delivery efficiencies are in Table 17 are relative to that of cFΦR4 (290-1F, 100%). SUV1 are small unilamellar vesicles that mimic the neutral outer membrane of mammalian cells [45% phosphatidylcholine (PC), 20% phosphatidylethanolamine (PE), 20% sphingomyelin (SM), and 15% cholesterol (CHO)]. SUV2 are small unilamellar vesicles that mimic the negatively charged endosomal membrane of mammalian cells [50% PC, 20% PE, 10% phosphatidylinositol (PI), and 20% bis(monoacylglycerol)phosphate].

[2] = system: SUV1 (vesicles that mimic the neutral outer membrane of mammalian cells); assay: Fluorescence polarization membrane binding, SUV1; details: pH 7.4; read-out: Membrane Binding KD (mM) SUV1 pH 7.4
From the text: as §1
(§2) Measurements were carried out fluorescence polarization using FITC-labeled cyclic peptides against increasing concentrations of vesicles. Experiments were performed at pH 7.4 and 5.5 (pH inside late endosomes).

[3] = system: SUV2 (vesicles that mimic the negatively charged endosomal membrane of mammalian cells); assay: Fluorescence polarization membrane binding, SUV2
From the text: as §1, §2

[4] = pH 5.5, read-out: Membrane Binding KD (mM) SUV2 pH 5.5
[5] = pH 7.4, read-out: Membrane Binding KD (mM) SUV2 pH 7.4

Compound | CAP fluorescence in cells (confocal) (HEK293 cells) | Mean fluorescence intensity (MFI) of CAP (HeLa cells) [AU] | Uptake Efficiency (%) [1] [%] | Kd [2] [mM] | Kd [3, 4] [mM] | Kd [3, 5] [mM] | Intracellular fluorescence of rhodamine B-labeled peptide (HEK293 cells) | MFI of CAP in the presence of sodium pervanadate (HeLa cells; PTP inhibitor sodium pervanadate) [AU]
RKKRRQRRR-miniPEG-DE(pCAP)LI (RKKRRQRRR[AEEA]DE[Ala(7-OPO3H2-coumarin-4-yl)]LI) [Tat-PCP, reference compound] | weak fluorescence | 290 |  |  |  |  |  | 
RRRRRRRRR-miniPEG-DE(pCAP)LI (RRRRRRRRRXDEXLI; miniPEG linker, pCAP residue; (10)..(10) 8-amino-3,6-dioxaoctanoic acid; (13)..(13) phosphocoumaryl amino propionic acid) [Peptide R9-PCP, reference compound] | weak fluorescence | 960 |  |  |  |  |  | 
N=C(N)NCCC[C@@H]1NC(=O)[C@H](CCCNC(=N)N)NC(=O)[C@H](CCCNC(=N)N)NC(=O)[C@H](CCCNC(=N)N)NC(=O)[C@H](Cc2ccc3ccccc3c2)NC(=O)[C@H](Cc2ccccc2)NC(=O)[C@H](CCC(=O)N[C@@H](CCCCNC(=S)Nc2ccc3c(c2)C(=O)OC32c3ccc(O)cc3Oc3cc(O)ccc32)C(N)=O)NC(=O)[C@H](CCCNC(=N)N)NC1=O [Peptide 290-6F] (cyclo([2Nal]RRRRRE(Lys(5-FITC)NH2)F)) |  |  | 184 | 2.2 | 0.019 | 0.12 |  | 
N=C(N)NCCC[C@@H]1NC(=O)[C@@H](CCCNC(=N)N)NC(=O)[C@H](CCCNC(=N)N)NC(=O)[C@@H](CCCNC(=N)N)NC(=O)[C@@H](Cc2ccc3ccccc3c2)NC(=O)[C@H](Cc2ccccc2)NC(=O)[C@@H](CCC(=O)N[C@@H](CCCCNC(=S)Nc2ccc3c(c2)C(=O)OC32c3ccc(O)cc3Oc3cc(O)ccc32)C(N)=O)NC1=O [Peptide 290-18F, c(FϕrRrRq)] (cyclo(F[d2Nal][dR]R[dR]R[dE](Lys(5-FITC)NH2))) |  |  | 205 | 0.75 | 0.022 | 0.04 |  | 
N=C(N)NCCC[C@@H]1NC(=O)[C@@H](CCCNC(=N)N)NC(=O)[C@H](CCCNC(=N)N)NC(=O)[C@@H](CCCNC(=N)N)NC(=O)[C@@H](Cc2ccc3ccccc3c2)NC(=O)[C@H](Cc2ccccc2)NC(=O)[C@H](CCC(=O)N[C@@H](CCCCNC(=S)Nc2ccc3c(c2)C(=O)OC32c3ccc(O)cc3Oc3cc(O)ccc32)C(N)=O)NC1=O [Peptide 290-13F, c(FϕrRrRQ)] (cyclo(F[d2Nal][dR]R[dR]RE(Lys(5-FITC)NH2))) |  |  | 200 | 0.68 | 0.04 | 0.28 |  | 
cyclo(FΦRRRRQ)-RRRRR-K(Rho) (cyclo(F[2Nal]RRRRQRRRRRK(RhodamineB)); not fully specified (C-terminus, bridges); printed as cyclo(FΦRRRRQ)-RRRRR-K(Rho)) [cFΦR4-R5] |  |  |  |  |  |  | both punctuate and diffuse fluorescence | 
cyclo(FΦRRRRQ)-AAAAA-K(Rho) (cyclo(F[2Nal]RRRRQAAAAAK(RhodamineB)); not fully specified (C-terminus, bridges); printed as cyclo(FΦRRRRQ)-AAAAA-K(Rho)) [cFΦR4-A5] |  |  |  |  |  |  | both punctuate and diffuse fluorescence | 
RQIKIWFQNRRMKWKK-miniPEG-DE(pCAP)LI (RQIKIWFQNRRMKWKKXDEXLI; miniPEG linker; pCAP residue; (17)..(17) 8-amino-3,6-dioxaoctanoic acid; (20)..(20) phosphocoumaryl amino propionic acid) [Antp-PCP, reference compound] | weak fluorescence | 400 |  |  |  |  |  | 
cyclo(FΦRRRRQ)-miniPEG-DE(pCAP)LI (cyclo(F[2Nal]RRRRQ[AEEA]DE[Ala(7-OPO3H2-coumarin-4-yl)]LI); not fully specified (C-terminus, bridges); printed as cyclo(FΦRRRRQ)-miniPEG-DE(pCAP)LI) [cFΦR4-PCP] | diffuse blue fluorescence throughout the cell | 3510 |  |  |  |  |  | 70
N=C(N)NCCC[C@@H]1NC(=O)[C@H](CCCNC(=N)N)NC(=O)[C@H](CCCNC(=N)N)NC(=O)[C@H](Cc2ccc3ccccc3c2)NC(=O)[C@H](Cc2ccccc2)NC(=O)[C@H](CCC(=O)N[C@@H](CCCCNC(=S)Nc2ccc3c(c2)C(=O)OC32c3ccc(O)cc3Oc3cc(O)ccc32)C(N)=O)NC1=O [Peptide 290-5F, c(FΦRRRQ)] (cyclo(F[2Nal]RRRE(Lys(5-FITC)NH2))) |  |  | 97 | 10.1 | 0.066 | 2.4 |  | 
Ac-DE(pCap)LI-NH2 (Ac-DE[Ala(7-OPO3H2-coumarin-4-yl)]LI-NH2; SMILES CC[C@H](C)[C@H](NC(=O)[C@H](CC(C)C)NC(=O)[C@H](Cc1cc(=O)oc2cc(OP(=O)(O)O)ccc12)NC(=O)[C@H](CCC(=O)O)NC(=O)[C@H](CC(=O)O)NC(C)=O)C(N)=O) [untagged PCP, reference compound] | failed to enter cells | 30 |  |  |  |  |  | 
N=C(N)NCCC[C@@H]1NC(=O)[C@H](CCC(=O)N[C@@H](CCCCNC(=S)Nc2ccc3c(c2)C(=O)OC32c3ccc(O)cc3Oc3cc(O)ccc32)C(N)=O)NC(=O)[C@H](CCCNC(=N)N)NC(=O)[C@H](Cc2ccc3ccccc3c2)NC(=O)[C@H](CCCNC(=N)N)NC(=O)[C@H](Cc2ccccc2)NC(=O)[C@H](CCCNC(=N)N)NC(=O)[C@H](Cc2ccccc2)NC1=O [Peptide 290-8F] (cyclo(RFRFR[2Nal]RE(Lys(5-FITC)NH2))) |  |  | 98 | 0.4 | 0.082 | 0.39 |  | 
N=C(N)NCCC[C@@H]1NC(=O)[C@H](Cc2ccc3ccccc3c2)NC(=O)[C@@H](Cc2ccccc2)NC(=O)[C@H](Cc2ccccc2)NC(=O)[C@H](CCC(=O)N[C@@H](CCCCNC(=S)Nc2ccc3c(c2)C(=O)OC32c3ccc(O)cc3Oc3cc(O)ccc32)C(N)=O)NC(=O)[C@@H](CCCNC(=N)N)NC(=O)[C@H](CCCNC(=N)N)NC(=O)[C@@H](CCCNC(=N)N)NC1=O [Peptide 290-12F, c(FfΦRrRrQ)] (cyclo(F[dF][2Nal]R[dR]R[dR]E(Lys(5-FITC)NH2))) |  |  | 681 | 0.8 | 0.004 | 0.026 |  | 
N=C(N)NCCC[C@@H]1NC(=O)[C@H](CCC(=O)N[C@@H](CCCCNC(=S)Nc2ccc3c(c2)C(=O)OC32c3ccc(O)cc3Oc3cc(O)ccc32)C(N)=O)NC(=O)[C@H](CCCNC(=N)N)NC(=O)[C@H](CCCNC(=N)N)NC(=O)[C@H](Cc2ccccc2)NC(=O)[C@H](Cc2ccc3ccccc3c2)NC(=O)[C@H](CCCNC(=N)N)NC1=O [Peptide 290-2F, c(RRΦFRRQ)] (cyclo(RR[2Nal]FRRE(Lys(5-FITC)NH2))) |  |  | 47 | 1.95 | 0.025 | 0.69 |  | 
